Data reported in patent publication US10980809B2, “Urea-substituted aromatic ring-linked dioxane-quinazoline and -linked dioxane-quinoline compounds, preparation method therefor and use thereof” (BEIJING SCITECH-MQ PHARMACEUTICALS LIMITED, priority 2017, dated 2021).

Columns and labels:
[1] = target: B-RAF (Homo sapiens (Human), UniProt P15056); test: Test of small molecule compounds for inhibiting the activity of B-RAF kinase (ADP-Glo)
Description: (§1) Test of Small Molecule Compounds for Inhibiting the Activity of C-RAF and B-RAF Kinases
(§2) 1. Preparation of test compounds: according to the molecular weight of the compounds, an appropriate volume of DMSO was directly added to dissolve the test compounds. For storing the compound, the concentration of DMSO is 100%, and the final concentration of DMSO in the experimental system is 1%.
(§3) Enzyme: B-RAF: 0.1 ng/l (the final concentration in the reaction system); C-RAF: 0.1 ng/μl (the final concentration in the reaction system)
(§4) HPE: the reaction without enzyme (1% DMSO)
(§5) ZPE: the reaction with enzyme but without compound (1% DMSO)
(§6) a) 1 ul of 10-fold diluted compound or 10% DMSO was added to a 384-well assay plate,
(§7) b) 4 ul enzyme solution or assay buffer was added to the wells of the assay plate,
(§8) c) the plate was centrifuged at 1000 rpm for 1 minute to homogeneous,
(§9) d) 5 ul of ATP-substrate mixture was added to the wells of the assay plate,
(§10) e) the plate was shaked for mixing for 2 minutes,
(§11) f) the plate was incubated at 30° C. for 1 hour,
(§12) g) 10 ul of ADP-Glo reagent was added to the wells of the assay plate, and the plate was incubated for 40 minutes at 27° C.,
(§13) h) 20 ul of kinase assay solution was added to the wells of the plate, and the plate was incubated for 30 minutes at 27° C.,
(§14) i) the chemiluminescent signal was read with Envision.
(§15) The IC50 values of the positive control compound and the test compounds were calculated using the Prism software according to the variable slope of the curve.

[2] = target: C-RAF (Homo sapiens (Human), UniProt P04049); test: Test of small molecule compounds for inhibiting the activity of C-RAF kinase (ADP-Glo)
Sequence of C-RAF (P04049 whole entry): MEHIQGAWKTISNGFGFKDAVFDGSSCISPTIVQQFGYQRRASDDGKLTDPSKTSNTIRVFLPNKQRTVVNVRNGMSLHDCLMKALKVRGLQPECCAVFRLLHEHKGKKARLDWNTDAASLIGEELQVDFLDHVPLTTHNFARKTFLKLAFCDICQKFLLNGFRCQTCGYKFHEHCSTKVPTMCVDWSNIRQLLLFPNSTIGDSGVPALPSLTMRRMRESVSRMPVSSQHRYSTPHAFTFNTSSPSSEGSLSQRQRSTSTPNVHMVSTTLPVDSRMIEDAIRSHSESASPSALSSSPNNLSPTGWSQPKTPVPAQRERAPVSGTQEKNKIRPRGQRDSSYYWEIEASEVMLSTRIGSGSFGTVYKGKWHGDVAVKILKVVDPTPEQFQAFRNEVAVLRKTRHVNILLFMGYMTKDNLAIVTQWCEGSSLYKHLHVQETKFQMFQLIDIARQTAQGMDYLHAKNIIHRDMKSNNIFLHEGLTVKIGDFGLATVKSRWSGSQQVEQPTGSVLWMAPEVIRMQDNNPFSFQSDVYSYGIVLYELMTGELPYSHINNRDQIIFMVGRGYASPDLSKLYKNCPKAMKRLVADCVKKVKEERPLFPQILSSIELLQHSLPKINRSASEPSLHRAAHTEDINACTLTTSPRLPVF
Description: as §1, §2, §3, §4, §5, §6, §7, §8, §9, §10, §11, §12, §13, §14, §15

[3] = target: VEGFR-2 kinase (Homo sapiens (Human), UniProt P35968); test: Test of small molecule compounds for inhibiting the activity of VEGFR-2 kinase; type: biochemical; details: class symbols A-D
Sequence of VEGFR-2 kinase (P35968 20-1356): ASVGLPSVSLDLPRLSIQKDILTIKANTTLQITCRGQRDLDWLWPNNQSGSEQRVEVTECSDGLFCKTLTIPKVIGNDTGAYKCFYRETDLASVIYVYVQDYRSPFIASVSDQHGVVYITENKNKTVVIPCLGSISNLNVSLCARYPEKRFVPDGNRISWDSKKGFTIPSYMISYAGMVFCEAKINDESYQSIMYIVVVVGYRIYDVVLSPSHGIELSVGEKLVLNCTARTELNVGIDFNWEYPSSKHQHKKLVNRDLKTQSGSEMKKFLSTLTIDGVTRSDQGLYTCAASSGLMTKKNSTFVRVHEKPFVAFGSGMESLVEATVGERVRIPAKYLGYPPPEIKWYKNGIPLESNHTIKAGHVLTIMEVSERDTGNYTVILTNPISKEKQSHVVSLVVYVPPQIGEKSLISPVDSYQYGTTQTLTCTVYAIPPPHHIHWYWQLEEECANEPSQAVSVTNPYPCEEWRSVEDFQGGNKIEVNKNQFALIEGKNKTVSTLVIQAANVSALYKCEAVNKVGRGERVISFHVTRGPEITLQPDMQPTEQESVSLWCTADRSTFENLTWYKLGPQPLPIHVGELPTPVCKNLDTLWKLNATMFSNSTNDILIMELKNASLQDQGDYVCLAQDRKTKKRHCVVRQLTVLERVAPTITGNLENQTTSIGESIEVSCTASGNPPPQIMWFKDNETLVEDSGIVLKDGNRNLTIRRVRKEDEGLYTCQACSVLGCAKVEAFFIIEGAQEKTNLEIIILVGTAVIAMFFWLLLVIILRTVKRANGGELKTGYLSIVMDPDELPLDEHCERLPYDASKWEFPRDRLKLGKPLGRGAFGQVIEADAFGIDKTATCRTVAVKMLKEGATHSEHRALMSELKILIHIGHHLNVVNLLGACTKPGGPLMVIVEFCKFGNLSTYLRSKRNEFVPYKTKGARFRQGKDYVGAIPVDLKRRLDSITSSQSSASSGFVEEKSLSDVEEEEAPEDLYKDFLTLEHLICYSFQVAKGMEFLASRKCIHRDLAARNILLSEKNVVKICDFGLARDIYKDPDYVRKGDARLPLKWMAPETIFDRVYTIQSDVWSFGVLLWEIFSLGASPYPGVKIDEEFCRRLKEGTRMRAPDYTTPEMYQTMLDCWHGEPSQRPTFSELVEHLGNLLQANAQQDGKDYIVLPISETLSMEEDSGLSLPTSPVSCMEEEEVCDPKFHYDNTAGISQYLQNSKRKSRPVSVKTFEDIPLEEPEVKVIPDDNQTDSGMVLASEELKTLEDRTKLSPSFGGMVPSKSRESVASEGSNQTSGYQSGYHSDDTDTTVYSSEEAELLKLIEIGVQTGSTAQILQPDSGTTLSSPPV
Description: Test of Small Molecule Compounds for Inhibiting the Activity of VEGFR-2 Kinase
The test was carried out as follows:
2. 2.5 μl of the gradient-diluted compounds was taken with a transfer pipette to a 384-well plate,
3. Addition of enzyme: 5 μl of 2×VEGFR-2 kinase was taken with a transfer pipette to the corresponding reaction well of the 384-well plate, which was mixed and pre-reacted at room temperature for 30 min,
5. Negative control: 2.5 μl/well 4× substrate/ATP Mix and 7.5 μl 1× Kinase Assay Buffer were added to the wells of the 384-well plate,
Positive control: 2.5 μl/well 4× substrate/ATP Mix, 2.5 μl/well 1× Kinase Assay Buffer containing 4% DMSO, and 5 μl/well 2×VEGFR-2 solution were added to the 384-well plate. The final concentration of DMSO in the reaction system is […],
6. The mixture was mixed well and then centrifuged and reacted at room temperature in dark for 60 min,
9. The 384-well plate was placed into the Envision plate reader and the signal was detected using the appropriate program,

Sequence of B-RAF (P15056 whole entry): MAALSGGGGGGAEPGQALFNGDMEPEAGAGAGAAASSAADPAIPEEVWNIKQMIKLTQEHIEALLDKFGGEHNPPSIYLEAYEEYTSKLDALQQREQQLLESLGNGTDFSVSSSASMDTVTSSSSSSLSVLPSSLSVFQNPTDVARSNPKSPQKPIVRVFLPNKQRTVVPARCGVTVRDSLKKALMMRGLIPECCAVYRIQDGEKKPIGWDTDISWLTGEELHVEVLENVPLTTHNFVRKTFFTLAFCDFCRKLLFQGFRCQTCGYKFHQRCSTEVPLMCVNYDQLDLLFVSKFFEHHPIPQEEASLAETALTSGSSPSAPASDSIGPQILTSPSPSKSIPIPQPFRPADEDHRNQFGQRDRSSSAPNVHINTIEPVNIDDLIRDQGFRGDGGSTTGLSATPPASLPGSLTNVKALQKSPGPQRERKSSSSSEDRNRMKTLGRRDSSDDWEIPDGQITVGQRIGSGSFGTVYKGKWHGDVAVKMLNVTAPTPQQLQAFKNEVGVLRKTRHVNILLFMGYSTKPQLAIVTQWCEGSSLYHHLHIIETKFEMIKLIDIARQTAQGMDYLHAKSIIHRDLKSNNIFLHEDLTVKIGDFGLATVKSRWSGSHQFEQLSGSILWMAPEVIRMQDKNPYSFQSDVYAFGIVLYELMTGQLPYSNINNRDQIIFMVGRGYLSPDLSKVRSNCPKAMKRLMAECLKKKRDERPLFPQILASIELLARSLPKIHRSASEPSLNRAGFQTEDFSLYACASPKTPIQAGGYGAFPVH

Structure (SMILES) | IC50 [1] | IC50 [2] | IC50 [3]
O=C(Nc1ccc(Oc2ncnc3cc(OCCCN4CCOCC4)c4c(c23)OCCO4)c(F)c1)Nc1ccc(Cl)c(C(F)(F)F)c1 [Example 68, 1-(4-chloro-3-(trifluoromethyl)phenyl)-3-(3-fluoro-4-((5-(3-morpholinopropoxy)-2,3-dihydro-[1,4]dioxino[2,3-f]quinazolin-10-yl)oxy)phenyl)urea] | 200 to 500 nM | 500 to 1000 nM | < 50 nM
O=C(Nc1ccc(Oc2ncnc3cc(OCCCN4CCCC4)c4c(c23)OCCO4)cc1Cl)NC1CC1 [Example 62, 1-(2-chloro-4-((5-(3-(pyrrolidin-1-yl)propoxy)-2,3-dihydro-[1,4]dioxino[2,3-f]quinazolin-10-yl)oxy)phenyl)-3-cyclopropylurea] | > 1000 nM | > 1000 nM | < 50 nM
COCCOc1cc2ncnc(Oc3ccc(NC(=O)Nc4cccc(OC)c4)cc3)c2c2c1OCCO2 [Example 50, 1-(4-((5-(2-methoxyethoxy)-2,3-dihydro-[1,4]dioxino[2,3-f]quinazolin-10-yl)oxy)phenyl)-3-(3-methoxyphenyl)urea] | > 1000 nM | > 1000 nM | < 50 nM
O=C(Nc1ccc(Oc2ncnc3cc(OCCCN4CCOCC4)c4c(c23)OCCO4)cc1)Nc1cc(C(F)(F)F)ccc1F [Example 65, 1-(2-fluoro-5-(trifluoromethyl)phenyl)-3-(4-((5-(3-morpholinopropoxy)-2,3-dihydro-[1,4]dioxino[2,3-f]quinazolin-10-yl)oxy)phenyl)urea] | […] | […] | < 50 nM
COc1cc2ncnc(Nc3ccc(NC(=O)Nc4ccccc4)c(Cl)c3)c2c2c1OCCO2 [Example 6, 1-(2-chloro-4-((5-methoxy-2,3-dihydro-[1,4]dioxino[2,3-f]quinazolin-10-yl)amino)phenyl)-3-phenylurea] | – | – | 50 to 500 nM
COCCOc1cc2ncnc(Oc3ccc(NC(=O)Nc4ccnc(OC)c4)cc3Cl)c2c2c1OCCO2 [Example 53, 1-(3-chloro-4-((5-(2-methoxyethoxy)-2,3-dihydro-[1,4]dioxino[2,3-f]quinazolin-10-yl)oxy)phenyl)-3-(2-methoxypyridin-4-yl)urea] | – | – | < 50 nM
COc1cc2nccc(Oc3ccc(NC(=O)Nc4ccc(Cl)c(C(F)(F)F)c4)cc3)c2c2c1OCCO2 [Example 90, 1-(4-chloro-3-(trifluoromethyl)phenyl)-3-(4-((5-methoxy-2,3-dihydro-[1,4]dioxino[2,3-f]quinolin-10-yl)oxy)phenyl)urea] | – | – | < 50 nM
COc1cccc(NC(=O)Nc2ccc(Nc3ncnc4cc(OC)c5c(c34)OCCO5)cc2Cl)c1 [Example 4, 1-(2-chloro-4-((5-methoxy-2,3-dihydro-[1,4]dioxino[2,3-f]quinazolin-10-yl)amino)phenyl)-3-(3-methoxyphenyl)urea] | – | – | < 50 nM
CN(C)CCCOc1cc2ncnc(Nc3ccc(NC(=O)NC4CC4)c(Cl)c3)c2c2c1OCCO2 [Example 82, 1-(2-chloro-4-((5-(3-(dimethylamino)propoxy)-2,3-dihydro-[1,4]dioxino[2,3-f]quinazolin-10-yl)amino)phenyl)-3-cyclopropylurea] | – | – | < 50 nM
O=C(Nc1ccc(Nc2ncnc3cc(OCCCN4CCOCC4)c4c(c23)OCCO4)cc1Cl)NC1CC1 [Example 63] | – | – | < 50 nM
COc1cc2ncnc(Nc3ccc(NC(=O)Nc4ccccn4)c(Cl)c3)c2c2c1OCCO2 [Example 5, 1-(2-chloro-4-((5-methoxy-2,3-dihydro-[1,4]dioxino[2,3-f]quinazolin-10-yl)amino)phenyl)-3-(pyridin-2-yl)urea] | – | – | > 5000 nM

The next lines start with the values.

IC50 [1] | IC50 [2] | IC50 [3] | Structure (SMILES)
< 200 nM | < 200 nM | < 50 nM | COc1cc2ncnc(Oc3ccc(NC(=O)Nc4ccc(Cl)c(C(F)(F)F)c4)c(F)c3)c2c2c1OCCO2 [Example 19, 1-(4-chloro-3-(trifluoromethyl)phenyl)-3-(2-fluoro-4-((5-methoxy-2,3-dihydro-[1,4]dioxino[2,3-f]quinazolin-10-yl)oxy)phenyl)urea]
200 to 500 nM | 500 to 1000 nM | < 50 nM | O=C(Nc1ccc(Oc2ncnc3cc(OCCCN4CCOCC4)c4c(c23)OCCO4)c(F)c1)Nc1cc(C(F)(F)F)ccc1F [Example 67, 1-(3-fluoro-4-((5-(3-morpholinopropoxy)-2,3-dihydro-[1,4]dioxino[2,3-f]quinazolin-10-yl)oxy)phenyl)-3-(2-fluoro-5-(trifluoromethyl)phenyl)urea]
200 to 500 nM | 200 to 500 nM | < 50 nM | O=C(Nc1ccc(Oc2ncnc3cc(OCCCN4CCOCC4)c4c(c23)OCCO4)cc1)Nc1ccc(Cl)c(C(F)(F)F)c1 [Example 66, 1-(4-chloro-3-(trifluoromethyl)phenyl)-3-(4-((5-(3-morpholinopropoxy)-2,3-dihydro-[1,4]dioxino[2,3-f]quinazolin-10-yl)oxy)phenyl)urea]
> 1000 nM | > 1000 nM | < 50 nM | COCCOc1cc2ncnc(Oc3ccc(NC(=O)Nc4ccc(F)cc4F)c(F)c3)c2c2c1OCCO2 [Example 49, 1-(2,4-difluorophenyl)-3-(2-fluoro-4-((5-(2-methoxyethoxy)-2,3-dihydro-[1,4]dioxino[2,3-f]quinazolin-10-yl)oxy)phenyl)urea]
> 1000 nM | > 1000 nM | < 50 nM | COc1cc2ncnc(Nc3ccc(NC(=O)Nc4cccc(S(C)(=O)=O)c4)c(Cl)c3)c2c2c1OCCO2 [Example 17, 1-(2-chloro-4-((5-methoxy-2,3-dihydro-[1,4]dioxino[2,3-f]quinazolin-10-yl)amino)phenyl)-3-(3-methylsulfonylphenyl)urea]
> 1000 nM | > 1000 nM | < 50 nM | COCCOc1cc2ncnc(Oc3ccc(NC(=O)NC4CC4)c(Cl)c3)c2c2c1OCCO2 [Example 45, 1-(2-chloro-4-((5-(2-methoxyethoxy)-2,3-dihydro-[1,4]dioxino[2,3-f]quinazolin-10-yl)oxy)phenyl)-3-cyclopropylurea]
> 1000 nM | > 1000 nM | < 50 nM | O=C(Nc1ccc(Oc2ncnc3cc(OCCCN4CCOCC4)c4c(c23)OCCO4)cc1Cl)NC1CC1 [Example 64]
[…] | […] | < 50 nM | COc1cc2ncnc(Nc3ccc(NC(=O)Nc4ccc(Cl)c(C(F)(F)F)c4)c(Cl)c3)c2c2c1OCCO2 [Example 11, 1-(2-chloro-4-((5-methoxy-2,3-dihydro-[1,4]dioxino[2,3-f]quinazolin-10-yl)amino)phenyl)-3-(4-chloro-3-(trifluoromethyl)phenyl)urea]
– | – | < 50 nM | CCOc1cc2ncnc(Oc3ccc(NC(=O)Nc4cc(C(F)(F)F)ccc4F)cc3)c2c2c1OCCO2 [Example 77, 1-(4-((5-ethoxy-2,3-dihydro-[1,4]dioxino[2,3-f]quinazolin-10-yl)oxy)phenyl)-3-(2-fluoro-5-(trifluoromethyl)phenyl)urea]
< 200 nM | 500 to 1000 nM | < 50 nM | COCCOc1cc2ncnc(Nc3ccc(NC(=O)Nc4ccc(Cl)c(C(F)(F)F)c4)c(Cl)c3)c2c2c1OCCO2 [Example 42, 1-(2-chloro-4-((5-(2-methoxyethoxy)-2,3-dihydro-[1,4]dioxino[2,3-f]quinazolin-10-yl)amino)phenyl)-3-(4-chloro-3-(trifluoromethyl)phenyl)urea]
